Measured values: PMC7144373, “Composition and Orientation of the Core Region of Novel HIV-1 Entry Inhibitors Influences Metabolic Stability” (Molecules, 2020)

What was measured:
[1] = system: HIV-1B41 Env pseudotyped HIV-1; experiment: Single-round HIV-1 infection assay (luciferase reporter); conditions: for IC50: Human immunodeficiency virus 1, U87/CD4/CCR5, 48 h, read-out: IC50 against HIV-1B41 Env pseudotyped HIV-1; for IC50 against HIV-1B41 Env pseudotyped HIV-1: U87.CD4.CCR5 cells, single-round infection, 48 h
Protocol: HEK293T cells were plated in 6-well plates with density of 1 × 10^6 cells/well. After 24 h, the two vectors (vector 1 and vector 2) were co-transfected in a 3:4 ratio, respectively [16]. Vector 1 is an HIV-1 pNL4-3-Luc+R-E plasmid with two main features. The vector contains a premature stop codon in the Env gene and replaces HIV-1 Nef gene with the luciferase-reporter gene [19]. Vector 2 is a plasmid expressing the HIV-1B41 gp160 Env [20]. Transient transfections of these vectors were carried out via calcium phosphate (ProFection Mammalian Transfection System, Promega, Madison, WI) for 5 h in DMEM without supplements. After the 5 h incubation period, the medium was replaced with fresh culture media. Seventy-two hours post-transfection, virus was collected by filtering supernatants. The result was single-round infectious virus with pseudotyped envelopes that contained a luciferase reporter [16]. This was aliquoted and stored at −80 °C.
The single-round HIV-1 infection assay was performed as previously described [19, 21, 22]. U87.CD4.CCR5 cells were seeded in Greiner Bio-one 96-well luminometer-compatible tissue culture plates with a density of 1.2 × 10^4 cells/well. After 24 h, compounds underwent serial dilutions in DMEM. DMSO was used as a vehicle control (Sigma). These dilutions were mixed with thawed pseudotyped HIV-1 virus (normalized to p24 content) and added to the U87 cells 100 µL/well. The plates were incubated for 48 h at 37 °C. Post-incubation, the medium was aspirated from each well, and 50 μL/well of 1X luciferase lysis buffer (Promega) was added. The plates were placed at −80 °C for one freeze-thaw cycle. After thawing, 50 µL/well of the luciferase assay substrate (Promega) was added and the luciferase activity of each well was measured by a GloMax 96 microplate luminometer (Promega).

CYP3A4 = system: CYP3A4; set-up: method as in doi:10.1093/ofid/ofz360.2178; conditions: cited from earlier work
[2] = Metabolic stability in human liver microsomes; conditions: for k (rate of metabolism): 1.0 µM compound, 0.5 mg/mL HLM, NADPH, 37 °C; for Eh (hepatic extraction ratio): (Clh/Q) × 100; for Clapp: extrapolated for a human with scaling factors; for Clh: extrapolated, Q = 20 mL/min/kg; for half-life at 1 µM / microsomal CLint at 1 µM: human, human liver microsomes, pH 7.4
Protocol: Metabolic stability analysis was performed as outlined in Lu et al..
Preparation of solutions. Test compound was weighed and dissolved in 100% DMSO to get 10 mM stock solution. The stock solution was diluted to 100 μM with mixture of acetonitrile and H2O (1:1). The final concentrations of DMSO and acetonitrile were equal to or less than 0.1%. […]
Microsomal incubation. Liver microsomes incubations were conducted in duplicate in 96-well plates. […] Reactions were terminated at various time points (0, 5, 10, 20, 40 min) by adding 150 µL of ice-cold methanol and acetonitrile (1:1, v/v) containing the internal standard.
LC-MS/MS analysis: A Waters liquid chromatographic system was used. […] The flow rate was maintained at 0.6 mL/min. Detection was performed on an API4000 Q-Trap mass spectrometer equipped with TurboIonSpray (ESI) Interface (Applied Biosystems, Concord, Ontario, Canada). Analyst 1.5 software packages (Applied Biosystems) were used to control the LC-MS/MS system, and for data acquisition and processing.
Data analysis: The peak area ratio of a test compound to internal standard was plotted as a percentage of the relevant zero time point control (%remaining) for each reaction. The rate of metabolism (k) is the slope of the linear regression from log percentage remaining versus incubation time.

[3] = Cellular toxicity (CCK-8 cell viability); conditions: human, U87.CD4.CCR5 cells
U87.CD4.CCR5 cells = experiment: Cellular toxicity (CCK-8 cell viability)

Row | SMILES | IC50 [1] | Primary metabolizing isoform as determined (CYP3A4) | k (rate of metabolism) [2] | Eh (hepatic extraction ratio) [2] | Clapp [2] | Clh [2] | half-life at 1 µM [2] | microsomal CLint at 1 µM [2] | CC50 at 48 h [3] | Toxicity in words (U87.CD4.CCR5 cells) | Metabolic stability compared with temsavir/BMS-626529 ([2]; human liver microsome half-lives) | IC50 against HIV-1B41 Env pseudotyped HIV-1 [1]
1 | COc1cnc(-n2cnc(C)n2)c2[nH]cc(C(=O)C(=O)N3CCN(C(=O)c4ccccc4)CC3)c12 [BMS-626529, reference compound] | 0.05 ± 0.006 nM | CYP3A4 |  |  |  |  |  |  |  |  |  | 
2 | COc1cnc(-n2cnc(C)n2)c2[nH]cc(C(=O)C(=O)N3CC4CN(C(=O)c5ccccc5)CC4C3)c12 (centres unmarked) [SC11] | 2 ± 0.2 nM |  | 0.07253 | 87.49% | 139.887 mL/min/kg | 17.498 mL/min/kg | 9.6 min | 145 µL/min/mg |  |  |  | 
3 | COc1cnc(-n2cnc(C)n2)c2[nH]cc(C(=O)C(=O)N3Cc4cnn(-c5ccccc5)c4C3)c12 [SC12] | 6 ± 0.3 nM |  | 0.1058 | 91.0753% | 204.1 mL/min/kg | 18.22 mL/min/kg | 6.55 min | 212 µL/min/mg |  |  |  | 
4 | COc1cnc(-n2cnc(C)n2)c2[nH]cc(C(=O)C(=O)N3CC(CCC(=O)c4ccccc4)C3)c12 [SC15] | 7 ± 0.1 nM |  | 0.05268 | 83.55% | 101.588 mL/min/kg | 16.710 mL/min/kg | 13.2 min | 105 µL/min/mg |  |  |  | 
5 | COc1cnc(-n2cnc(C)n2)c2[nH]cc(C(=O)C(=O)NC3C4CN(C(=O)c5ccccc5)CC43)c12 (centres unmarked) [SC28] |  |  | 0.00479 | 31.61% | 9.245 mL/min/kg | 6.322 mL/min/kg | 145 min | 9.6 µL/min/mg | > 400 µM | very low toxicities | more than twice the metabolic stability of temsavir/BMS-626529 | 
6 | COc1cnc(-n2cnc(C)n2)c2[nH]cc(C(=O)C(=O)N3C[C@@H]4[C@H](C3)[C@H]4NC(=O)c3ccccc3)c12 [SC46] | 91.5 nM |  | 0.0076 | 42.28% | 14.657 mL/min/kg | 8.455 mL/min/kg | 91.2 min | 15.2 µL/min/mg | > 1000 µM | very low toxicities |  | low nanomolar range
7 | COc1cnc(-n2cnc(C)n2)c2[nH]cc(C(=O)C(=O)N3CC(C)N(C(=O)c4ccccc4)C(C)C3)c12 (centres unmarked) [SC54, 1-(4-benzoyl-3,5-dimethylpiperazin-1-yl)-2-(4-methoxy-7-(3-methyl-1H-1,2,4-triazol-1-yl)-1H-pyrrolo[2,3-c]pyridin-3-yl)ethane-1,2-dione] | 0.41 ± 0.061 nM |  | 0.02223 | 68.19% | 42.88 mL/min/kg | 13.64 mL/min/kg | 31.2 min | 44.5 µL/min/mg |  |  |  | low nanomolar range
8 | C[C@]12CC[C@H]3[C@@H](CCC4=CC(=O)CC[C@@]43C)[C@@H]1CC[C@@H]2O [Testosterone, reference compound] |  |  | 0.05134 |  | 99.005 mL/min/kg | 16.639 mL/min/kg |  |  |  |  |  | 
